Common to all, as to assay type: functional, cell-based, Oocyte
The target of data set [1] is T1, Solute carrier organic anion transporter family member 1A2 (OATP1A2) (Homo sapiens, UniProt P46721).
T1 sequence (P46721 whole entry): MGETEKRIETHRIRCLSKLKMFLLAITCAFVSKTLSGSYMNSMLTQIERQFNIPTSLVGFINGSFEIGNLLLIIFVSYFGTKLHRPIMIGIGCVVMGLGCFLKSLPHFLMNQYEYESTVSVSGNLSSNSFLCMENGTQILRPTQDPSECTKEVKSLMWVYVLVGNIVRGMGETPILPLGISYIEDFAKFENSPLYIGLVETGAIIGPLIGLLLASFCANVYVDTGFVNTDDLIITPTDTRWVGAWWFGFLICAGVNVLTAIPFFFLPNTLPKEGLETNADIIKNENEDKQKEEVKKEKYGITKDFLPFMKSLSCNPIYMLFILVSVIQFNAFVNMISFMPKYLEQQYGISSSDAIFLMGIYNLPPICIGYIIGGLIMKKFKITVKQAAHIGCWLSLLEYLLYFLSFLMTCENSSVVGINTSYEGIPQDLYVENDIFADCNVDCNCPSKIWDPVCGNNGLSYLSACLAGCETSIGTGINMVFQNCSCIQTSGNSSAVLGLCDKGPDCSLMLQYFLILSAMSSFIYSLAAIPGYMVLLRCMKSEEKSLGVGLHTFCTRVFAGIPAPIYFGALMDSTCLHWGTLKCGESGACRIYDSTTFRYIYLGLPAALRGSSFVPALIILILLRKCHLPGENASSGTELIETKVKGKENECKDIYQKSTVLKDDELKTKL
In words: TP_TRANSPORTER: inhibition of E1S uptake (E1S: 0.2 uM, TCDC: 100 uM) in Xenopus laevis oocytes. The note with it: probe E1S (estrone sulfate).

Data set [2] concerns the target T1, Solute carrier organic anion transporter family member 1A2 (OATP1A2). In words: TP_TRANSPORTER: inhibition of Ouabain uptake (Ouabain: 100 uM, TCDC: 100 uM) in Xenopus laevis oocytes. The note with it: probe Ouabain.
The target is the same in data set [3]. In words: TP_TRANSPORTER: uptake in Xenopus laevis oocytes.

By inhibition is commonly meant the drop in the measured response relative to a control, in per cent. By Km is commonly meant the substrate concentration at which the rate is half of its maximum.

Molecules are shown by their SMILES.

Regarding `C[C@H](CCC(=O)NCCS(=O)(=O)O)[C@H]1CC[C@H]2[C@@H]3[C@H](O)C[C@@H]4C[C@H](O)CC[C@]4(C)[C@H]3CC[C@]12C` [TAUROCHENODEOXYCHOLATE], the inhibition at 100 µM in data set [1] is 91%; in data set [2], 100%. On to `C[C@]12CC[C@@H]3c4ccc(OS(=O)(=O)O)cc4CC[C@H]3[C@@H]1CCC2=O` [ESTRONE SULFURIC ACID], for which, in data set [3], the Km is 59 µM.

As for `C[C@@H]1O[C@@H](O[C@H]2C[C@@H](O)[C@]3(CO)[C@H]4[C@H](O)C[C@]5(C)[C@@H](C6=CC(=O)OC6)CC[C@]5(O)[C@@H]4CC[C@]3(O)C2)[C@H](O)[C@H](O)[C@H]1O` [OUABAIN], the Km in data set [3] was found to be 5500 µM.

Source of the values: ChEMBL document CHEMBL2073890, “Multispecific amphipathic substrate transport by an organic anion transporter of human liver” (J Hepatol, 1996).
